From patent US20230053297A1, “COMPOSITIONS AND METHODS TO INCREASE SERUM DILEUCINE LEVELS” (Ingenious Ingredients, LP, priority 2021, published 2023)

Test: Plasma dileucine pharmacokinetics after a single dose of leucine or whey protein isolate in healthy men
Details: male, human, in vivo
Protocol: Five healthy men between the ages of 18-50 years of age were recruited to participate in this study. Prior to beginning the study, all participants signed an informed consent document and complete a healthy history questionnaire to determine study eligibility.
All participants reported to the laboratory between 06:00-10:00 hours and observing an 8-10 hour fast. For the two days prior to testing, study participants were given a standardized meal plan to help control for changes in dietary intake prior to testing. Upon arrival, participants heart rate, blood pressure, body mass, height and body composition were measured using DEXA. Prior to body composition assessment, study participants were tested for appropriate hydration status. Using standard multiple sample phlebotomy approaches, approximately 10 mL of venous blood was collected from a forearm vein prior to being administrated a single dose of either leucine (2-gram dose) or whey protein isolate (25-gram dose). In a time course fashion, subsequent venous blood samples were collected 30, 60, 90, 120 and 240 minutes after ingestion of their assigned supplement. Participants were provided 250 mL of cold water to ingest after each blood collection. Study participants returned approximately 3-7 days after completion of the previous study visit to complete an identical testing session as previously described while receiving the alternative treatment.

- AUC Dileucine: 37.1 ± 20.2 µM·h
- Cmax: 610 ± 430 nM
- increase of plasma dileucine levels compared to whey protein (as AUC): 40.5%
Compound: CC(C)C[C@H](N)C(=O)O [leucine]
